System: subjects with NAFLD and increased liver stiffness
Test: Clinical Trial B: liver steatosis by MRI-PDFF
Format: in vivo, human
Conditions: 0.4 mg OD s.c.
Method: A randomised, double-blind, placebo-controlled, parallel group, multi-centre phase 1 trial was carried out to investigate the effect of 0.4 mg semaglutide once-daily (OD) in 67 subjects with NAFLD and increased liver stiffness. Subjects received once daily either (i) semaglutide of 0.05 mg for 4 weeks, 0.1 mg for 4 weeks, 0.2 mg for 4 weeks, 0.3 mg for 4 weeks, and then 0.4 mg for the remaining trial period, or (ii) placebo in injection volumes corresponding to (i). Administration was performed via subcutaneous injection using (a) an aqueous solution comprising 1.0 mg/ml semaglutide, 1.42 mg/ml disodium hydrogen phosphate dihydrate, 14.0 mg/ml propylene glycol, 5.50 mg/ml phenol at pH 7.4, or (b) a placebo solution comprising the same ingredients as (a) except no semaglutide. Inclusion criteria for subjects in the trial comprised (i) liver steatosis of at least 10% measured by magnetic resonance imaging proton density fat fraction (MRI-PDFF) at screening, (ii) liver stiffness between 2.50 and 4.63 kPa (both inclusive) measured by magnetic resonance elastography at screening, (iii) BMI between 25.0 and 40.0 kg/m^2 (both inclusive) at screening, (iv) liver stiffness >6.50 kPa measured via Fibroscan® (manufactured by Echosens, Paris, France) at screening, and (v) for subjects with type 2 diabetes mellitus only, diagnosis of type 2 diabetes mellitus was at least 180 days prior to screening and with HbA1c of no more than 9.5% at screening. Screening was carried out prior to baseline in order to make assessments used to determine subject eligibility. Exclusion criteria for subjects in the trial comprised (i) documented causes of chronic liver disease other than NAFLD including NASH and (ii) no substantial alcohol consumption, defined in the trial as no more than 20 g ethanol per day for women or no more than 30 g ethanol per day for men. Baseline characteristics for all randomised subjects in the trial were shown in Table B. MRI-PDFF is a determination of the percentage of fat in the entire liver and the method is described in e.g. Caussy et al. Hepatology. 2018 August; 68(2):763-772.

## N-epsilon26-[2-(2-{2-[2-(2-{2-[(S)-4-Carboxy-4-(17-carboxyheptadecanoyl-amino)butyrylamino]ethoxy}ethoxy)acetylamino]ethoxy}ethoxy)acetyl] [Aib8, Arg34]GLP-1-(7-37) [Semaglutide]
24 weeks of trial
  Reduction of liver steatosis compared to placebo: 30%
  Subjects with at least 30% reduction in liver steatosis: about 65%
48 and 72 weeks of trial
  Reduction of liver steatosis compared to placebo: about 50%
  Subjects with at least 30% reduction in liver steatosis: 74-77%
Trial week 24
  Change in liver steatosis by MRI-PDFF compared to baseline, Estimated mean ratio to baseline: 0.64
  Proportion of subjects with 30% or greater reduction in liver steatosis by MRI-PDFF compared to baseline: 64.7 (p = 0.0006) %
Trial week 48
  Change in liver steatosis by MRI-PDFF compared to baseline, Estimated mean ratio to baseline: 0.42
  Proportion of subjects with 30% or greater reduction in liver steatosis by MRI-PDFF compared to baseline: 76.5 (p = 0.0001) %
Trial week 72
  Change in liver steatosis by MRI-PDFF compared to baseline, Estimated mean ratio to baseline: 0.42
  Proportion of subjects with 30% or greater reduction in liver steatosis by MRI-PDFF compared to baseline: 73.5 (p = 0.0006) %
